Measured values taken from paper PMC3152598 (Biochemical pharmacology, 2011).

Columns and labels:
human A3 AR [1] = biological target: T1, human A3 AR (Homo sapiens, UniProt P0DMS8); experiment: Membrane hyperpolarization; settings: for agonist activity in membrane hyperpolarization assay, in words: agonist alone; for Emax: CHO, read-out: hyperpolarization Emax
T1 sequence (P0DMS8 1-318): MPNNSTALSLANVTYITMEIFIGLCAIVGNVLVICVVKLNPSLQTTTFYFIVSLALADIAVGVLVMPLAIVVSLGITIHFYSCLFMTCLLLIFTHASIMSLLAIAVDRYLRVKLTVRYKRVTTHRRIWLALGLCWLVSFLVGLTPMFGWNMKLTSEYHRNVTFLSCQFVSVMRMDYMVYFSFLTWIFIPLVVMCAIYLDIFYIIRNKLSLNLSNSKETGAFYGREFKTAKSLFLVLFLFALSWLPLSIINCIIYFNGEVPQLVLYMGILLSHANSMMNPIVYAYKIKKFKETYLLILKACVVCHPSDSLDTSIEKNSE

human A3 AR [2] = biological target: T1, human A3 AR; experiment: Cyclic AMP accumulation assay
human A3 AR [3] = biological target: T1, human A3 AR; experiment: cell-based; settings: CHO, read-out: β-arrestin2 Emax
human A3 AR [4] = biological target: T1, human A3 AR; experiment: cell-based; settings: CHO, read-out: Ca2+ Emax
human A3 AR [5] = biological target: T1, human A3 AR; settings: no agonist
human A3 AR [6] = biological target: T1, human A3 AR; settings: LUF6000 10 μM
other subtypes of ARs = settings: concentrations up to 10 μM; cited from earlier work
human A3 AR [7] = biological target: T1, human A3 AR; settings: agonist Cl-IB-MECA; LUF6000 1, 3, and 10 μM

SMILES: Nc1ncnc2c1ncn2[C@@H]1O[C@H](CO)[C@@H](O)[C@H]1O [adenosine]
- agonist activity in membrane hyperpolarization assay, in words (human A3 AR [1]): equally efficacious as NECA

SMILES: Clc1ccc(Nc2nc3ccccc3c3[nH]c(C4CCC4)nc23)cc1Cl [LUF5999, N-(3,4-dichloro-phenyl)-2-cyclobutyl-1H-imidazo[4,5-c]quinolin-4-amine]
- effect on agonist action (efficacy and potency), in words (human A3 AR [2]; agonist Cl-IB-MECA): concentration-dependently increasing efficacy while decreasing potency

SMILES: Clc1ccc(Nc2nc3ccccc3c3[nH]cnc23)cc1Cl [LUF6001, N-(3,4-dichloro-phenyl)-1H-imidazo[4,5-c]quinolin-4-amine]
- effect on agonist action (efficacy and potency), in words (human A3 AR [2]; agonist Cl-IB-MECA): slightly decreased both the efficacy and potency

SMILES: O=c1[nH]cnc2c1ncn2[C@@H]1O[C@H](CO)[C@@H](O)[C@H]1O [inosine]
- agonist activity in membrane hyperpolarization assay, in words (human A3 AR [1]): did not show any significant activation

SMILES: OC[C@H]1O[C@@H](n2cnc3c(NCc4cccc(I)c4)ncnc32)[C@H](O)[C@@H]1O [MRS541, N^6-(3-iodobenzyl)adenosine]
- agonist activity in membrane hyperpolarization assay, in words (human A3 AR [1]): did not show any significant activation

SMILES: CNC(=O)[C@H]1O[C@@H](n2cnc3c(NCc4cccc(I)c4)nc(Cl)nc32)[C@H](O)[C@@H]1O [Cl-IB-MECA, 2-chloro-N^6-(3-iodobenzyl)adenosine-5′-N-methyluronamide]
- Emax (human A3 AR [1]): 58.3 ± 3.6%
- Emax (human A3 AR [2]; CHO, read-out: cyclic AMP Emax): 95.8 ± 4.8%
- Emax (human A3 AR [3]): 104 ± 5%
- Emax (human A3 AR [4]): 55.2 ± 3.4%

SMILES: OC[C@H]1O[C@@H](n2cnc3c(NCc4cccc(I)c4)nc(Cl)nc32)[C@H](O)[C@@H]1O [MRS542, 2-chloro-N^6-(3-iodobenzyl)adenosine]
- Emax (human A3 AR [1]): -3.8 ± 5.6%
- agonist activity in membrane hyperpolarization assay, in words (human A3 AR [1]): did not show any agonist activity
- Emax (human A3 AR [3]): 41.1 ± 3.2%
- Emax (human A3 AR [4]): 7.5 ± 2.5%

SMILES: Clc1ccc(Nc2nc3ccccc3c3[nH]c(C4CCCCC4)nc23)cc1Cl [LUF6000, N-(3,4-dichloro-phenyl)-2-cyclohexyl-1H-imidazo[4,5-c]quinolin-4-amine]
- further increase of the efficacy of Cl-IB-MECA at higher concentration (human A3 AR [1]; agonist Cl-IB-MECA, LUF6000 30 μM): did not induce a further increase
- effect on the efficacy of adenosine (human A3 AR [1]; agonist adenosine, data not shown): did not show any effect
- enhancement of the residual activity of inosine, MRS541 and LUF5833 (human A3 AR [1]; ligands inosine, MRS541, LUF5833): did not show any enhancement
- effect of modulator alone on membrane hyperpolarization (human A3 AR [1]; no agonist): did not show any effect
- concentration at which the efficacy-enhancing effect reaches a maximum (human A3 AR [2]; agonist Cl-IB-MECA): approx. 10 μM
- concentration from which the efficacy-enhancing effect starts (human A3 AR [2]; agonist Cl-IB-MECA): ≤ 1 µM
- relative enhancement of the efficacy of Cl-IB-MECA (human A3 AR [2]; agonist Cl-IB-MECA, LUF6000 10 μM): 50%
- further enhancement at higher concentration (human A3 AR [2]; agonist Cl-IB-MECA, LUF6000 30 μM, data not shown): did not cause further enhancement
- effect on agonist potency (human A3 AR [2]; agonist Cl-IB-MECA, modulator 10 μM or lower): did not significantly affect
- maximum enhancement of the efficacy of NECA (human A3 AR [2]; agonist NECA, LUF6000 10 μM): about 16%
- efficacy of inosine in presence of LUF6000, % of the level of NECA (human A3 AR [2]; agonist inosine, LUF6000 10 μM): 85%
- effect on the inability of MRS1220 and MRS1191 to inhibit forskolin-stimulated cyclic AMP levels (human A3 AR [2]; nonnucleoside A3 AR antagonists MRS1220 and MRS1191, data not shown): did not show any effect
- effect on the efficacy of CCPA (human A3 AR [2]; nucleoside antagonist CCPA): no effect
- effect on the efficacy of MRS542 (human A3 AR [2]; nucleoside antagonist MRS542): no effect
- efficacy of LUF5833, % of the control level (agonist alone) (human A3 AR [2]; partial agonist LUF5833, LUF6000 10 μM): over 200%
- efficacy of MRS541, % of the control level (agonist alone) (human A3 AR [2]; partial agonist MRS541, LUF6000 10 μM): over 200%
- effect of modulator alone on intracellular calcium mobilization (human A3 AR [5]): had no effect
- enhancement of the effect of Cl-IB-MECA (human A3 AR [6]; agonist Cl-IB-MECA): less than 10%
- enhancement of the effect of NECA (human A3 AR [6]; agonist NECA): less than 10%
- enhancement of the efficacy of MRS542 (human A3 AR [6]; partial agonist MRS542): about 40%
- binding at the other subtypes of ARs (other subtypes of ARs): did not bind appreciably
- effect on the efficacy of Cl-IB-MECA in inducing ERK1/2 activation (human A3 AR [7]): had no effect
